Results taken from patent publication US5187277A, “DL-3-[4-[4-(2-pyridyl)-1-piperazinyl]-butyl]-1,8,8-trimethyl-3-az abicyclo[(3]octane-2,4-dione having psychotropic and antiemetic effect” (priority 1990, dated 1993).
Structures can show the parent of a compound that is named as a salt. Where two headings read alike, the source gives them in different places.

How the values were obtained:
[1] = system: rat; assay: antiaggressive activity ("rat fight" method); assay type: in vivo; conditions: for ED50: Rattus norvegicus, read-out: Antiaggressive activity ED50
Procedure: (§1) The compounds were introduced intraperitoneally and orally 20-60 minutes before the beginning of the test. The minimum effective doses (MED) increasing the number of water takings and increasing the period of staying in an illuminated area by at least 50%, were determined. The neuroleptic activity was detected and measured using the "rat fight" method and the "climbing" test of mice (P. Protais et al. Psychopharmacology, 50, p. 1, 1976). […] The antiemetic effect on vomiting caused by apomorphine or cisplatin was studied in pigeons (P. Presiosi et al., Arch. Int. Pharmacodyn., 298, p. 301, 1989) and mongrel dogs having a weight of 6-8 kg.

[2] = system: mice; assay: antiapomorphine activity in "climbing" test of mice; assay type: in vivo; conditions: for ED50: Mus musculus, ip, read-out: Antiapomorphine activity in "climbing" test ED50
Procedure: as §1

[3] = system: rats (conflict tests); assay: anxiolytic activity in conflict situation model; assay type: in vivo; conditions: for minimal effective dose: Rattus norvegicus, read-out: Anxiolytic activity MED in conflict tests
Procedure: as §1

[4] = system: rats (avoiding illuminated area tests); assay: anxiolytic activity by the method of avoiding illuminated areas; assay type: in vivo; conditions: for minimal effective dose: Rattus norvegicus, read-out: Anxiolytic activity MED in "avoiding illuminated area" tests
Procedure: as §1

[5] = hexobarbital-potentiation effect (narcosepotentiation, nonnarcotic dose of hexobarbital); assay type: in vivo; conditions: for ED50: read-out: Hexobarbital-potentiation effect ED50
[6] = sedative activity, suppression of motor activity (spontaneous locomotion); assay type: in vivo; conditions: for ED50: ip, read-out: Sedative activity ED50, suppression of motor activity
[7] = sedative activity, suppression of orientation behaviour; assay type: in vivo; conditions: ip, read-out: Sedative activity ED50, suppression of orientation behaviour
[8] = myorelaxation activity, rotating rod test; assay type: in vivo; conditions: for ED50: ip, read-out: Myorelaxation activity ED50
[9] = system: pigeons; assay: antiemetic activity, vomiting caused by apomorphine in pigeons; assay type: in vivo; conditions: for ED50: Columbidae, ip, read-out: Antiemetic activity, ED50
Procedure: as §1

[10] = system: pigeons; assay: antiemetic activity, vomiting caused by cisplatin in pigeons; assay type: in vivo; conditions: Columbidae, ip, read-out: Antiemetic activity, ED50
Procedure: as §1

[11] = system: mongrel dogs; assay: antiemetic activity, vomiting caused by apomorphine in dogs; assay type: in vivo; conditions: Canis lupus familiaris; dog tests
Procedure: as §1

[12] = system: mongrel dogs; assay: antiemetic activity, vomiting caused by cisplatin in dogs; assay type: in vivo; conditions: Canis lupus familiaris; dog tests
Procedure: as §1

[13] = cataleptogenic (extrapyramidic) activity; conditions: in vivo
[14] = effect characteristic of tranquilizers and neuroleptics (anxiolytic, antiaggressive, antiapomorphine and hexobarbital-potentiation effects); assay type: in vivo; conditions: systematic application of dihydrochloride
Procedure: as §1

[15] = from Table 2
[16] = in vivo; conditions: ip
[17] = ip, rats, i/p, minimum effective dose increasing number of water takings by at least 50%, dihydrochlorides of I, VI, VII
[18] = po, rats, orally, minimum effective dose increasing number of water takings by at least 50%, dihydrochlorides of I, VI, VII
[19] = ip, rats, i/p, minimum effective dose increasing period of staying in illuminated area by at least 50%
[20] = po, rats, orally, minimum effective dose increasing period of staying in illuminated area by at least 50%
[21] = pigeons, vomiting caused by apomorphine, i/p
[22] = pigeons, vomiting caused by cisplatin, i/p

CCN1CCCC1CNC(=O)c1cc(S(N)(=O)=O)ccc1OC (centres unmarked) [Sulpyride]
ED50 ([1]; ip, i/p): 60.6 ± 16.6 mg/kg | ED50 ([2]; mice, i/p): 8.4 ± 1.3 mg/kg

CC12CCC(C(=O)N(CCCCN3CCN(c4ccccn4)CC3)C1=O)C2(C)C (racemic) [Compound I, DL-3-[4-[4-(2-pyridyl)-1-piperazinyl]-butyl]-1,8,8-trimethyl-3-azabicyclo[3,2,1]octane-2,4-dione dihydrochloride]
minimal effective dose [3, 17]: 1 mg/kg | minimal effective dose [3, 18]: 3 mg/kg | antianxiety activity relative to buspirone and said bicyclic imides ([3]; conflict situation model): three times as large | anxiolytic doses compared with diazepame ([3]; intraperitoneally): coincide with the similar doses of diazepame | anxiolytic activity relative to compounds VI, VII ([3]; two anxiety models, intraperitoneally, conflict test): three times as large | minimal effective dose [4, 19]: 1 mg/kg | minimal effective dose [4, 20]: 10 mg/kg | anxiolytic activity relative to compounds VI, VII ([4]; two anxiety models, intraperitoneally, avoiding illuminated area): three times as large | ED50 ([1]; ip, i/p): 7.45 ± 1.6 mg/kg | ED50 ([1]; po, orally): 30.8 ± 4.14 mg/kg | antiaggressive activity relative to buspirone and bicyclic imides ([1]; antiaggressive test): two to four times as large | ED50 ([2]; mice, i/p): 0.7 ± 0.13 mg/kg | climbing test activity relative to buspirone and bicyclic imides ([2]; climbing test): two to four times as large | apomorphine antagonism in "climbing" test compared with haloperidol ([2]; mouse, in vivo): comparable to haloperidol | hexobarbital-potentiating activity compared with diazepame ([5]; in vivo): essentially lower than the activity of diazepame | ED50 ([5]; ip, i/p): 17.6 ± 2.9 mg/kg | ED50 ([5]; po, orally): 12.5 ± 3.14 mg/kg | sedative activity compared with diazepame ([6]; from Table 2): much lower than the activity and toxicity of diazepame | ED50 ([6]; i/p): 2.8 ± 0.7 mg/kg | ED50 ([7]; i/p): 3.9 ± 0.9 mg/kg | myorelaxation activity compared with diazepame ([8]; from Table 2): much lower than the activity and toxicity of diazepame | ED50 ([8]; i/p): 44.5 ± 10 mg/kg | ED50 [9, 21]: 0.11 ± 0.02 mg/kg | antiemetic effect relative to all comparable compounds (haloperidol, triphthazine, metoclopramide) ([9]; fold, versus haloperidol, triphthazine, metoclopramide, emetogen not specified (apomorphine or cisplatin)): 10-100 times | antiemetic and antiapomorphine activities compared with other compounds ([9]; pigeons, from Table 3): substantially higher than those of other compounds | ED50 [10, 22]: 0.4 ± 0.07 mg/kg | ED50 [11]: 0.02 ± 0.006 mg/kg | ED50 [12]: 0.013 ± 0.005 mg/kg | cataleptogenic (extrapyramidic) activity [13]: free of cataleptogenic (extrapyramidic) activity | dose range producing anxiolytic, antiaggressive, antiapomorphine and hexobarbital-potentiation effects [14]: 0.1-50 mg/kg of a body weight | toxicity compared with diazepame [15]: much lower than the activity and toxicity of diazepame | LD50 [16]: 208 ± 20 mg/kg

CC12CCC(C(=O)N(CCCCN3CCN(c4ncccn4)CC3)C1=O)C2(C)C (racemic) [VII, DL-3-[4-(2-pyrimidinyl)-1-piperazinyl]-butyl]-1,8,8-trimethyl-3azabic yclo[3,2,1]octane-2,4-dione]
minimal effective dose [3, 17]: 3 mg/kg | minimal effective dose [3, 18]: 3 mg/kg | minimal effective dose [4, 19]: 3 mg/kg | minimal effective dose [4, 20]: 10 mg/kg | ED50 ([1]; ip, i/p): 28.5 ± 4.2 mg/kg | ED50 ([1]; po, orally): 81.5 ± 8.3 mg/kg | ED50 ([2]; mice, i/p): 1.31 ± 0.15 mg/kg | ED50 ([5]; ip, i/p): 11.9 ± 2.2 mg/kg | ED50 ([5]; po, orally): 36.5 ± 8.11 mg/kg | ED50 ([6]; i/p): 5.4 ± 2.3 mg/kg | ED50 ([7]; i/p): 7.7 ± 1.6 mg/kg | ED50 ([8]; i/p): 52.5 ± 12 mg/kg | ED50 [9, 21]: 1.8 ± 0.4 mg/kg | ED50 [10, 22]: 4.6 ± 0.8 mg/kg | LD50 [16]: 211 ± 31 mg/kg

CN1C(=O)CN=C(c2ccccc2)c2cc(Cl)ccc21 [Diazepame]
minimal effective dose ([3]; ip): 1 mg/kg | minimal effective dose ([4]; ip): 1 mg/kg | minimal effective dose ([4]; po): 1 mg/kg | ED50 ([1]; po): 5.9 ± 1.28 mg/kg | ED50 ([5]; ip): 0.3 ± 0.1 mg/kg | ED50 ([5]; po): 0.48 ± 0.12 mg/kg | ED50 [6]: 0.6 ± 0.2 mg/kg | ED50 [7]: 0.6 ± 0.2 mg/kg | ED50 [8]: 2.4 ± 0.2 mg/kg

O=C1CC2(CCCC2)CC(=O)N1CCCCN1CCN(c2ncccn2)CC1 [VI, 8-[4-[4-(2-pyrimidinyl)-1-piperazinyl]butyl]-8-azaspiro[4,5]decane-7 ,9-dione]
minimal effective dose [3, 17]: 3 mg/kg | minimal effective dose [4, 19]: 3 mg/kg | ED50 ([2]; mice, i/p): 2.6 ± 0.46 mg/kg | ED50 ([5]; ip, i/p): 8.2 ± 2.4 mg/kg | ED50 ([6]; i/p): 8.7 ± 1.8 mg/kg | ED50 ([7]; i/p): 7.6 ± 1.9 mg/kg | ED50 ([8]; i/p): 54.2 ± 8.1 mg/kg | LD50 [16]: 140 ± 20 mg/kg

CCN(CC)CCNC(=O)c1cc(Cl)c(N)cc1OC [Metoclopramide]
ED50 [9, 21]: 12 ± 1.7 mg/kg | ED50 [10, 22]: 9.7 ± 1.1 mg/kg

O=C(CCCN1CCC(O)(c2ccc(Cl)cc2)CC1)c1ccc(F)cc1 [Haloperidol]
minimal effective dose ([3]; ip): > 3 mg/kg | ED50 [2]: 0.67 ± 0.06 mg/kg | ED50 [9]: 3.4 ± 0.5 mg/kg | ED50 [10]: 4.4 ± 0.9 mg/kg

CN1CCN(CCCN2c3ccccc3Sc3ccc(C(F)(F)F)cc32)CC1 [Trifluoperazine]
ED50 [9, 21]: 4.6 ± 0.8 mg/kg | ED50 [10, 22]: 5.5 ± 0.9 mg/kg
